# Calls of active or inactive are those of the source. The rule behind the calls is not given here.
# Tests used:
# [1] = Toxicity against Carassius auratus under laboratory conditions assessed as mortality at 5 ppm measured after 24 hr; type: organism-based; conditions: in vivo
# [2] = Toxicity against Carassius auratus under laboratory conditions assessed as mortality at 5 ppm measured after 96 hr; type: organism-based; conditions: in vivo
# [3] = Toxicity against Carassius auratus under laboratory conditions assessed as mortality at 10 ppm measured after 48 hr; type: organism-based; conditions: in vivo
# [4] = Toxicity against Carassius auratus under laboratory conditions assessed as mortality at 54 ppm measured after 48 hr; type: organism-based; conditions: in vivo
# [5] = Toxicity against Oreochromis sp. under laboratory conditions assessed as mortality at 33 ppm measured after 96 hr; type: organism-based; conditions: in vivo
# [6] = Toxicity against Oreochromis sp. under laboratory conditions assessed as mortality at 17 ppm measured after 24 hr; type: organism-based; conditions: in vivo
# [7] = Toxicity against Oreochromis sp. under laboratory conditions assessed as mortality at 54 ppm measured after 24 hr; type: organism-based; conditions: in vivo
# [8] = system: Pomacea canaliculata; assay: Molluscicidal activity against Pomacea canaliculata under laboratory conditions assessed as mortality at 23 ppm after 24 hr; type: functional
# [9] = Toxicity against Carassius auratus under laboratory conditions assessed as mortality at 5 ppm measured after 48 hr; type: organism-based; conditions: in vivo
# [10] = system: Pomacea canaliculata; assay: Molluscicidal activity against Pomacea canaliculata under laboratory conditions assessed as mortality at 5 ppm after 24 hr; type: functional
# [11] = system: Pomacea canaliculata; assay: Molluscicidal activity against Pomacea canaliculata under laboratory conditions assessed as mortality at 17 ppm after 24 hr; type: functional
# [12] = Toxicity against Oreochromis sp. under laboratory conditions assessed as mortality at 17 ppm measured after 96 hr; type: organism-based; conditions: in vivo
# [13] = Toxicity against Carassius auratus under laboratory conditions assessed as mortality at 54 ppm measured after 96 hr; type: organism-based; conditions: in vivo
# [14] = system: Pomacea canaliculata; assay: Molluscicidal activity against Pomacea canaliculata under laboratory conditions assessed as mortality at 33 ppm after 24 hr; type: functional
# [15] = Toxicity against Carassius auratus under laboratory conditions assessed as mortality at 33 ppm measured after 24 hr; type: organism-based; conditions: in vivo
# [16] = Toxicity against Carassius auratus under laboratory conditions assessed as mortality at 17 ppm measured after 24 hr; type: organism-based; conditions: in vivo
# [17] = Toxicity against Oreochromis sp. under laboratory conditions assessed as mortality at 33 ppm measured after 24 hr; type: organism-based; conditions: in vivo
# [18] = Toxicity against Carassius auratus under laboratory conditions assessed as mortality at 17 ppm measured after 48 hr; type: organism-based; conditions: in vivo
# [19] = Toxicity against Oreochromis sp. under laboratory conditions assessed as mortality at 54 ppm measured after 96 hr; type: organism-based; conditions: in vivo
# [20] = Toxicity against Oreochromis sp. under laboratory conditions assessed as mortality at 10 ppm measured after 24 hr; type: organism-based; conditions: in vivo
# [21] = system: Pomacea canaliculata; assay: Molluscicidal activity against Pomacea canaliculata infested rice field assessed as mortality at 19 to 27 ppm after 24 hr; type: functional, organism-based
# [22] = Toxicity against Oreochromis sp. under laboratory conditions assessed as mortality at 10 ppm measured after 96 hr; type: organism-based; conditions: in vivo
# [23] = Toxicity against Carassius auratus under laboratory conditions assessed as mortality at 33 ppm measured after 96 hr; type: organism-based; conditions: in vivo
# [24] = Toxicity against Carassius auratus under laboratory conditions assessed as mortality at 40 ppm measured after 48 hr; type: organism-based; conditions: in vivo
# [25] = Toxicity against Carassius auratus under laboratory conditions assessed as mortality at 23 ppm measured after 96 hr; type: organism-based; conditions: in vivo
# [26] = Toxicity against Oreochromis sp. under laboratory conditions assessed as mortality at 23 ppm measured after 96 hr; type: organism-based; conditions: in vivo
# [27] = Toxicity against Carassius auratus under laboratory conditions assessed as mortality at 33 ppm measured after 48 hr; type: organism-based; conditions: in vivo
# [28] = Toxicity against Oreochromis sp. under laboratory conditions assessed as mortality at 5 ppm measured after 96 hr; type: organism-based; conditions: in vivo
# [29] = Toxicity against Carassius auratus under laboratory conditions assessed as mortality at 10 ppm measured after 24 hr; type: organism-based; conditions: in vivo
# [30] = Toxicity against Oreochromis sp. under laboratory conditions assessed as mortality at 5 ppm measured after 24 hr; type: organism-based; conditions: in vivo
# [31] = Toxicity against Carassius auratus under laboratory conditions assessed as mortality at 40 ppm measured after 96 hr; type: organism-based; conditions: in vivo
# [32] = system: Pomacea canaliculata; assay: Molluscicidal activity against Pomacea canaliculata under laboratory conditions assessed as mortality at 54 ppm after 24 hr; type: functional
# [33] = Toxicity against Oreochromis sp. under laboratory conditions assessed as mortality at 23 ppm measured after 24 hr; type: organism-based; conditions: in vivo
# [34] = Toxicity against Carassius auratus under laboratory conditions assessed as mortality at 40 ppm measured after 24 hr; type: organism-based; conditions: in vivo
# [35] = Toxicity against Carassius auratus under laboratory conditions assessed as mortality at 10 ppm measured after 96 hr; type: organism-based; conditions: in vivo
# [36] = Toxicity against Carassius auratus under laboratory conditions assessed as mortality at 23 ppm measured after 48 hr; type: organism-based; conditions: in vivo
# [37] = system: Pomacea canaliculata; assay: Molluscicidal activity against Pomacea canaliculata under laboratory conditions assessed as mortality at 10 ppm after 24 hr; type: functional
# [38] = Toxicity against Carassius auratus under laboratory conditions assessed as mortality at 17 ppm measured after 96 hr; type: organism-based; conditions: in vivo
# [39] = Toxicity against Oreochromis sp. under laboratory conditions assessed as mortality at 40 ppm measured after 24 hr; type: organism-based; conditions: in vivo
# [40] = Toxicity against Oreochromis sp. under laboratory conditions assessed as mortality at 40 ppm measured after 96 hr; type: organism-based; conditions: in vivo
# [41] = Toxicity against Carassius auratus under laboratory conditions assessed as mortality at 54 ppm measured after 24 hr; type: organism-based; conditions: in vivo
# [42] = Toxicity against Carassius auratus under laboratory conditions assessed as mortality at 23 ppm measured after 24 hr; type: organism-based; conditions: in vivo
# [43] = system: Pomacea canaliculata; assay: Molluscicidal activity against Pomacea canaliculata under laboratory conditions assessed as mortality at 40 ppm after 24 hr; type: functional
structure (smiles),measurement,setting,value
CC1(C)CC[C@]2(C(=O)O)CC[C@]3(C)C(=CC[C@@H]4[C@@]5(C)CC[C@H](O)[C@@](C)(CO)[C@@H]5CC[C@]43C)[C@@H]2C1 [HEDERAGENIN],"mortality at 24 h, 5 ppm",[1],0%
same,"mortality at 96 h, 5 ppm",[2],0%
same,"mortality at 48 h, 10 ppm",[3],0%
same,"mortality at 48 h, 54 ppm",[4],0%
same,"mortality at 96 h, 33 ppm",[5],0%
same,"mortality at 24 h, 17 ppm",[6],0%
same,"mortality at 24 h, 54 ppm",[7],0%
same,mortality at 23 ppm,[8],75%
same,"mortality at 48 h, 5 ppm",[9],0%
same,mortality at 5 ppm,[10],0%
same,mortality at 17 ppm,[11],75%
same,"mortality at 96 h, 17 ppm",[12],0%
same,"mortality at 96 h, 54 ppm",[13],0%
same,mortality at 33 ppm,[14],100%
same,"mortality at 24 h, 33 ppm",[15],0%
same,"mortality at 24 h, 17 ppm",[16],0%
same,"mortality at 24 h, 33 ppm",[17],0%
same,"mortality at 48 h, 17 ppm",[18],0%
same,"mortality at 96 h, 54 ppm",[19],0%
same,"mortality at 24 h, 10 ppm",[20],0%
same,mortality,[21],Active
same,"mortality at 96 h, 10 ppm",[22],0%
same,"mortality at 96 h, 33 ppm",[23],0%
same,"mortality at 48 h, 40 ppm",[24],0%
same,"mortality at 96 h, 23 ppm",[25],0%
same,"mortality at 96 h, 23 ppm",[26],0%
same,"mortality at 48 h, 33 ppm",[27],0%
same,"mortality at 96 h, 5 ppm",[28],0%
same,"mortality at 24 h, 10 ppm",[29],0%
same,"mortality at 24 h, 5 ppm",[30],0%
same,"mortality at 96 h, 40 ppm",[31],0%
same,mortality at 54 ppm,[32],100%
same,"mortality at 24 h, 23 ppm",[33],0%
same,"mortality at 24 h, 40 ppm",[34],0%
same,"mortality at 96 h, 10 ppm",[35],0%
same,"mortality at 48 h, 23 ppm",[36],0%
same,mortality at 10 ppm,[37],50%
same,"mortality at 96 h, 17 ppm",[38],0%
same,"mortality at 24 h, 40 ppm",[39],0%
same,"mortality at 96 h, 40 ppm",[40],0%
same,"mortality at 24 h, 54 ppm",[41],0%
same,"mortality at 24 h, 23 ppm",[42],0%
same,mortality at 40 ppm,[43],100%
CC1(C)CC[C@]2(C(=O)O)CC[C@]3(C)C(=CC[C@@H]4[C@@]5(C)CC[C@H](O)C(C)(C)[C@@H]5CC[C@]43C)[C@@H]2C1 [OLEANOLIC_ACID],"mortality at 24 h, 5 ppm",[1],0%
same,"mortality at 96 h, 5 ppm",[2],0%
same,"mortality at 48 h, 10 ppm",[3],0%
same,"mortality at 48 h, 54 ppm",[4],0%
same,"mortality at 96 h, 33 ppm",[5],0%
same,"mortality at 24 h, 17 ppm",[6],0%
same,"mortality at 24 h, 54 ppm",[7],0%
same,mortality at 23 ppm,[8],75%
same,"mortality at 48 h, 5 ppm",[9],0%
same,mortality at 5 ppm,[10],0%
same,mortality at 17 ppm,[11],75%
same,"mortality at 96 h, 17 ppm",[12],0%
same,"mortality at 96 h, 54 ppm",[13],0%
same,mortality at 33 ppm,[14],100%
same,"mortality at 24 h, 33 ppm",[15],0%
same,"mortality at 24 h, 17 ppm",[16],0%
same,"mortality at 24 h, 33 ppm",[17],0%
same,"mortality at 48 h, 17 ppm",[18],0%
same,"mortality at 96 h, 54 ppm",[19],0%
same,"mortality at 24 h, 10 ppm",[20],0%
same,mortality,[21],Active
same,"mortality at 96 h, 10 ppm",[22],0%
same,"mortality at 96 h, 33 ppm",[23],0%
same,"mortality at 48 h, 40 ppm",[24],0%
same,"mortality at 96 h, 23 ppm",[25],0%
same,"mortality at 96 h, 23 ppm",[26],0%
same,"mortality at 48 h, 33 ppm",[27],0%
same,"mortality at 96 h, 5 ppm",[28],0%
same,"mortality at 24 h, 10 ppm",[29],0%
same,"mortality at 24 h, 5 ppm",[30],0%
same,"mortality at 96 h, 40 ppm",[31],0%
same,mortality at 54 ppm,[32],100%
same,"mortality at 24 h, 23 ppm",[33],0%
same,"mortality at 24 h, 40 ppm",[34],0%
same,"mortality at 96 h, 10 ppm",[35],0%
same,"mortality at 48 h, 23 ppm",[36],0%
same,mortality at 10 ppm,[37],50%
same,"mortality at 96 h, 17 ppm",[38],0%
same,"mortality at 24 h, 40 ppm",[39],0%
same,"mortality at 96 h, 40 ppm",[40],0%
same,"mortality at 24 h, 54 ppm",[41],0%
same,"mortality at 24 h, 23 ppm",[42],0%
same,mortality at 40 ppm,[43],100%

# From ChEMBL document CHEMBL3045910, “Novel molluscicide against Pomacea canaliculata based on quinoa (Chenopodium quinoa) saponins” (Crop Prot, 2008)
